ChEMBL document CHEMBL1201862, “PubChem BioAssay data set” (2004)
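Following 48 hours of exposure in 96-well plates, responses at five concentrations were used to interpolate endpoints linearly. GI50 = concentration required for 50% inhibition of growth.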 The source made the active and inactive calls. Rule as the data show it: active = GI50 up to about 1.1 µM and inactive = higher.

What was measured:
Assay in all cases: NCI tumour cell line growth inhibition, 48 h
SK-MEL-28 = system: SK-MEL-28
SNB-75 = system: SNB-75
HL-60 = system: HL-60
HCT-15 = system: HCT-15
SK-OV-3 = system: SK-OV-3
RXF 393 = system: RXF 393
HT-29 = system: HT-29
CAKI-1 = system: CAKI-1
A498 = system: A498
Malme-3M = system: Malme-3M
RPMI-8226 = system: RPMI-8226
IGROV-1 = system: IGROV-1
OVCAR-8 = system: OVCAR-8
SNB-19 = system: SNB-19
EKVX = system: EKVX
OVCAR-4 = system: OVCAR-4
LOX IMVI = system: LOX IMVI
SF-268 = system: SF-268
SNB-78 = system: SNB-78
M19-MEL = system: M19-MEL

Row | SMILES | GI50 (SK-MEL-28) | GI50 (SNB-75) | GI50 (HL-60) | GI50 (HCT-15) [µM] | GI50 (SK-OV-3) | GI50 (RXF 393) | GI50 (HT-29) | GI50 (CAKI-1) | GI50 (A498) | GI50 (Malme-3M) | GI50 (RPMI-8226) | GI50 (IGROV-1) | GI50 (OVCAR-8) | GI50 (SNB-19) | GI50 (EKVX) | GI50 (OVCAR-4) | GI50 (LOX IMVI) | GI50 (SF-268) | GI50 (SNB-78) | GI50 (M19-MEL)
1 | c1ccc(/N=C2\S/C(=N\C3CCCCC3)N(C3CCCCC3)\C2=N/c2ccccc2)cc1 | > 100 µM (inactive) | > 100 µM (inactive) | > 100 µM (inactive) | > 100 | > 100 µM (inactive) | > 100 µM (inactive) | > 100 µM (inactive) | > 100 µM (inactive) | > 100 µM (inactive) | > 100 µM (inactive) | > 100 µM (inactive) | > 100 µM (inactive) | > 100 µM (inactive) | > 100 µM (inactive) | – | – | – | – | – | –
2 | CC1OC2=N[C@@H]1C(=O)N[C@@H](Cc1ccccc1)C1=N[C@H](C(=O)N[C@@H](Cc3ccccc3)C3=N[C@H](C(=O)N[C@H]2Cc2ccccc2)C(C)O3)C(C)O1 (stereo partly specified) | 26.5 µM (inactive) | – | – | 30.6 | 49.7 µM (inactive) | 31.1 µM (inactive) | 20 µM (inactive) | 40.4 µM (inactive) | 29.9 µM (inactive) | 22.4 µM (inactive) | 13.5 µM (inactive) | 29.4 µM (inactive) | 26.4 µM (inactive) | – | 49.5 µM (inactive) | 46.2 µM (inactive) | 17 µM (inactive) | – | – | –
3 | COc1cc(C2(c3ncc[nH]3)SSSCC2O)ccc1O (stereo unspecified) | > 100 µM (inactive) | > 100 µM (inactive) | 29.6 µM (inactive) | 33.1 | 66.4 µM (inactive) | 30.1 µM (inactive) | 38 µM (inactive) | 86.1 µM (inactive) | 79.3 µM (inactive) | – | 22.6 µM (inactive) | 47.2 µM (inactive) | 36.9 µM (inactive) | > 87.7 µM (inactive) | 94 µM (inactive) | 22.2 µM (inactive) | 19.1 µM (inactive) | 15.8 µM (inactive) | 34.2 µM (inactive) | 12.2 µM (inactive)
4 | COc1ccc(C2C(Cl)C(=O)N2NC(=O)c2ccccc2O)cc1 (stereo unspecified) | > 100 µM (inactive) | > 100 µM (inactive) | > 100 µM (inactive) | – | > 100 µM (inactive) | > 100 µM (inactive) | > 100 µM (inactive) | – | – | > 100 µM (inactive) | > 100 µM (inactive) | > 100 µM (inactive) | > 100 µM (inactive) | > 100 µM (inactive) | > 100 µM (inactive) | > 100 µM (inactive) | – | > 100 µM (inactive) | – | > 100 µM (inactive)
5 | CO/C=C1\OC(=O)C=C1OC | > 100 µM (inactive) | > 100 µM (inactive) | > 100 µM (inactive) | > 100 | > 100 µM (inactive) | > 100 µM (inactive) | > 100 µM (inactive) | > 100 µM (inactive) | > 100 µM (inactive) | > 100 µM (inactive) | > 100 µM (inactive) | > 100 µM (inactive) | > 100 µM (inactive) | > 100 µM (inactive) | > 100 µM (inactive) | > 100 µM (inactive) | > 100 µM (inactive) | > 100 µM (inactive) | > 100 µM (inactive) | > 100 µM (inactive)
6 | O=C1C2=C(C3=NCCc4c[nH]c1c43)c1c(Br)cc(Br)cc1CCN2 | 8.49 µM (inactive) | 8.93 µM (inactive) | 1.62 µM (inactive) | 2.21 | 12.2 µM (inactive) | 4.75 µM (inactive) | 2.45 µM (inactive) | 13.4 µM (inactive) | 11.2 µM (inactive) | – | 1.24 µM (inactive) | 4.06 µM (inactive) | 2.98 µM (inactive) | 11.2 µM (inactive) | 3.01 µM (inactive) | 2.22 µM (inactive) | 1.23 µM (inactive) | 2.59 µM (inactive) | 5.55 µM (inactive) | 0.661 µM (active)
7 | O=C(O)CNS(=O)(=O)c1ccc(NC(=O)Nc2ccccc2)cc1 | > 100 µM (inactive) | > 100 µM (inactive) | > 31.6 µM (inactive) | > 100 | > 100 µM (inactive) | > 100 µM (inactive) | > 100 µM (inactive) | > 100 µM (inactive) | > 100 µM (inactive) | > 100 µM (inactive) | > 100 µM (inactive) | > 37.6 µM (inactive) | > 100 µM (inactive) | > 100 µM (inactive) | > 100 µM (inactive) | > 100 µM (inactive) | > 100 µM (inactive) | > 100 µM (inactive) | > 100 µM (inactive) | > 38 µM (inactive)
8 | CN(C)CCNC(=O)c1cccc2[nH]c(-c3ccc(Cl)cc3)nc12 | 17.1 µM (inactive) | 4.4 µM (inactive) | 2.77 µM (inactive) | 4.99 | 11.4 µM (inactive) | 8.57 µM (inactive) | 4.24 µM (inactive) | 2.82 µM (inactive) | 10.7 µM (inactive) | 6.82 µM (inactive) | 2.76 µM (inactive) | 7.35 µM (inactive) | 4.61 µM (inactive) | 7.87 µM (inactive) | 12.4 µM (inactive) | 7.24 µM (inactive) | 4.42 µM (inactive) | 12.7 µM (inactive) | 15.9 µM (inactive) | 6.98 µM (inactive)
9 | Cn1ccnc1C(O)(c1nccn1C)c1nccn1C | > 100 µM (inactive) | > 100 µM (inactive) | > 100 µM (inactive) | – | – | > 100 µM (inactive) | > 100 µM (inactive) | > 100 µM (inactive) | – | > 100 µM (inactive) | – | – | > 100 µM (inactive) | > 100 µM (inactive) | > 100 µM (inactive) | > 100 µM (inactive) | > 100 µM (inactive) | > 100 µM (inactive) | > 100 µM (inactive) | > 100 µM (inactive)
10 | CC1(C)COC(/C=C/C2=NC(C)(C)CO2)=N1 | 17.6 µM (inactive) | > 100 µM (inactive) | 20.1 µM (inactive) | 15.1 | > 100 µM (inactive) | 16.3 µM (inactive) | 21.2 µM (inactive) | 5.89 µM (inactive) | 0.0401 µM (active) | 17.5 µM (inactive) | 10 µM (inactive) | 18.5 µM (inactive) | 20.3 µM (inactive) | 68.5 µM (inactive) | 16.9 µM (inactive) | 24.7 µM (inactive) | 3.25 µM (inactive) | 24.3 µM (inactive) | – | –
11 | COC(=O)C1CCC(=O)N1C(=O)Cc1ccc(OC)cc1 (stereo unspecified) | > 100 µM (inactive) | > 100 µM (inactive) | – | > 100 | > 100 µM (inactive) | – | > 100 µM (inactive) | > 100 µM (inactive) | > 100 µM (inactive) | – | – | > 100 µM (inactive) | > 100 µM (inactive) | > 100 µM (inactive) | > 100 µM (inactive) | > 100 µM (inactive) | > 100 µM (inactive) | > 100 µM (inactive) | > 100 µM (inactive) | > 100 µM (inactive)
12 | CC1(C)C(=O)c2ccccc2OC1N1CCN(C2Oc3ccccc3C(=O)C2(C)C)CC1 (stereo unspecified) | > 100 µM (inactive) | 28 µM (inactive) | > 100 µM (inactive) | > 100 | > 100 µM (inactive) | 48.1 µM (inactive) | > 100 µM (inactive) | > 100 µM (inactive) | 24.5 µM (inactive) | 30.3 µM (inactive) | > 100 µM (inactive) | > 100 µM (inactive) | – | > 100 µM (inactive) | > 100 µM (inactive) | > 100 µM (inactive) | > 100 µM (inactive) | > 100 µM (inactive) | – | –
13 | COc1ccc(C(=O)Cc2ccc(Cl)cc2)cc1OC | – | 34.4 µM (inactive) | > 100 µM (inactive) | > 100 | > 100 µM (inactive) | > 100 µM (inactive) | > 100 µM (inactive) | > 100 µM (inactive) | > 100 µM (inactive) | > 100 µM (inactive) | > 100 µM (inactive) | > 100 µM (inactive) | > 100 µM (inactive) | > 100 µM (inactive) | > 100 µM (inactive) | > 100 µM (inactive) | > 100 µM (inactive) | > 100 µM (inactive) | > 100 µM (inactive) | > 100 µM (inactive)
14 | CC(=O)NNc1nc(C)c(C(=O)NNC(=O)C(=O)Nc2cccc(C(C)=O)c2)s1 | 19.7 µM (inactive) | 17.3 µM (inactive) | 25.5 µM (inactive) | 21.2 | 18.3 µM (inactive) | 16.5 µM (inactive) | 50.2 µM (inactive) | 16.4 µM (inactive) | 20.7 µM (inactive) | – | 40.1 µM (inactive) | 26.5 µM (inactive) | 20 µM (inactive) | 41 µM (inactive) | 42.7 µM (inactive) | 25.2 µM (inactive) | 21.2 µM (inactive) | 21.5 µM (inactive) | 75.3 µM (inactive) | 19.9 µM (inactive)
15 | COc1cc(C2c3cc4c(cc3OC3(O)COC(=O)C23)OCO4)cc(OC)c1OC (stereo unspecified) | – | 25.2 µM (inactive) | 30.3 µM (inactive) | 53.2 | 25.1 µM (inactive) | 31.3 µM (inactive) | 33.2 µM (inactive) | 51.3 µM (inactive) | 46.7 µM (inactive) | 81.1 µM (inactive) | 58.2 µM (inactive) | 48.9 µM (inactive) | 54 µM (inactive) | 53.5 µM (inactive) | 78.3 µM (inactive) | > 100 µM (inactive) | 47.5 µM (inactive) | 85.3 µM (inactive) | > 100 µM (inactive) | 56.6 µM (inactive)
16 | COC(=O)c1c(O)ccc2c1c1c(n2Cc2cccc(C)c2)C(=O)c2ccccc2C1 | 0.295 µM (active) | – | > 75 µM (inactive) | 19.7 | > 75 µM (inactive) | 11.9 µM (inactive) | 10.3 µM (inactive) | 8.75 µM (inactive) | 40.8 µM (inactive) | 13.5 µM (inactive) | 12 µM (inactive) | 42.7 µM (inactive) | 26.2 µM (inactive) | > 75 µM (inactive) | 0.0931 µM (active) | 0.126 µM (active) | 19.8 µM (inactive) | 28 µM (inactive) | – | –
